Reference: patent publication US10961198B2, “Farnesoid X receptor agonists and uses thereof” (Metacrine, Inc., priority 2017, dated 2021)

Each compound was assayed against hFXR (Homo sapiens (Human), UniProt Q96RI1) (assay: In Vitro FXR Assay (TK)). Conditions: CV-1 cells transfected with hFXR, hRXR, TK-ECRE-luc and pCMX-YFP; incubated 18 hrs; luminescence; maximum efficacy <25% of the Fexarmine control classified as '+'.
Format: cell-based
Experimental: Example B-1: In Vitro FXR Assay (TK)
CV-1 cells were seeded at a density of 2,000,000 cells in a T175 flask with DMEM+10% charcoal double-stripped FBS and incubated at 37° C. in 5% CO2 for 18 h (O/N).
After 18 h of incubation, the medium in the T175 flask was changed with fresh DMEM+10% charcoal super-stripped serum. In a polypropylene tube, 2500 μL OptiMEM (Life Technologies, Cat #31985-062) was combined with expression plasmids for hFXR, hRXR, TK-ECRE-luc and pCMX-YFP. The tube was then briefly vortexed and incubated at room temperature for 5 minutes. Transfection reagent (X-tremeGENE HP from Roche, Cat #06 366 236 001) was added to the OptiMEM/plasmid mixture vortexed and incubated at room temperature for 20 minutes. Following incubation, the transfection reagent/DNA mixture complex was added to cells in the T175 flask and the cells were incubated at 37° C. in 5% CO2 for 18 h (O/N).
Compounds were serially diluted in DMSO and added to transfected CV-1 cells. The cells were then incubated for 18 hrs. The next day cells were lysed and examined for luminescence.

Sequence of hFXR (Q96RI1 whole entry): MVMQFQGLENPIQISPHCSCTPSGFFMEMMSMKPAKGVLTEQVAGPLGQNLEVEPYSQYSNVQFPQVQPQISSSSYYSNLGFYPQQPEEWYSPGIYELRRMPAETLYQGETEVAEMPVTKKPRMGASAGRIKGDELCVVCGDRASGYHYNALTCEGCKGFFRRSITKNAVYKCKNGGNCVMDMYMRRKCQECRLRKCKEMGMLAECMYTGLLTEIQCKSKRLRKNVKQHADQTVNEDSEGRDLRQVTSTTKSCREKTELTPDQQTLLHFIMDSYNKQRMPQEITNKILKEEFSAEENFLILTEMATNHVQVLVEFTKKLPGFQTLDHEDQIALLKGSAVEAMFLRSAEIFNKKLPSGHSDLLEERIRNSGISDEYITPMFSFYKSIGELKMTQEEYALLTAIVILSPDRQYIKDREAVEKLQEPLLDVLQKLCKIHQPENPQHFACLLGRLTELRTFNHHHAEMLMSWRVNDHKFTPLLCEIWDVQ
Sequence of hFXR (P19793 whole entry partner): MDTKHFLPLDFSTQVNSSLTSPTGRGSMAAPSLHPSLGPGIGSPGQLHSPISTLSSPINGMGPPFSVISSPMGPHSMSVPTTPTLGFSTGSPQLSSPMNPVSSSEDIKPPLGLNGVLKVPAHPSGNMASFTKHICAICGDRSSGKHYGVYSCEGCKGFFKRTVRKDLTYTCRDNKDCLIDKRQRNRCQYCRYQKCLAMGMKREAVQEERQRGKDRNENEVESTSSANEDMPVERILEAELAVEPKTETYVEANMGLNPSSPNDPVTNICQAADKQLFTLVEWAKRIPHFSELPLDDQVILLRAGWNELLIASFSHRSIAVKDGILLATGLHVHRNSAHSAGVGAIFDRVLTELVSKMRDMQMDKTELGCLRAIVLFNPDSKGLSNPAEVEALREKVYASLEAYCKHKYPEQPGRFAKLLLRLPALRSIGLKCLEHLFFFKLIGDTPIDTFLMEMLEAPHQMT

| EC50 | Compound |
| --- | --- |
| 250 to 1000 nM | COc1ccc([C@H]2CC[C@H](CN(c3cccc(-n4cc(C)cn4)c3)C(=O)[C@H]3CC[C@H](O)CC3)CC2)cc1C [Compound 1, trans-4-Hydroxy-N-((trans-4-(4-methoxy-3-methylphenyl)cyclohexyl)methyl)-N-(3-(4-methyl-1H-pyrazol-1-yl)phenyl)cyclohexanecarboxamide] |
| ≤ 250 nM | CCn1cc(-c2cccc(N(C[C@H]3CC[C@H](c4ccc(OC)c(C#N)c4)CC3)C(=O)[C@H]3CC[C@H](O)CC3)c2)cn1 [Compound 2, trans-N-((trans-4-(3-Cyano-4-methoxyphenyl)cyclohexyl)methyl)-N-(3-(1-ethyl-1H-pyrazol-4-yl)phenyl)-4-hydroxycyclohexanecarboxamide] |
| ≤ 250 nM | COc1ccc([C@H]2CC[C@H](CN(c3cccc(-c4cnn(C)c4)c3)C(=O)[C@H]3CC[C@H](O)CC3)CC2)cc1C [Compound 2.01, trans-4-Hydroxy-N-((trans-4-(4-methoxy-3-methylphenyl)cyclohexyl)methyl)-N-(3-(1-methyl-1H-pyrazol-4-yl)phenyl)cyclohexanecarboxamide] |
| ≤ 250 nM | CCn1cc(-c2cccc(N(C[C@H]3CC[C@H](c4ccc(OC)c(C)c4)CC3)C(=O)[C@H]3CC[C@H](O)CC3)c2)cn1 [Compound 2.02, trans-N-(3-(1-Ethyl-1H-pyrazol-4-yl)phenyl)-4-hydroxy-N-((trans-4-(4-methoxy-3-methylphenyl)cyclohexyl)methyl)cyclohexanecarboxamide] |
| ≤ 250 nM | COc1ccc([C@H]2CC[C@H](CN(c3cccc(-c4cnn(C(C)C)c4)c3)C(=O)[C@H]3CC[C@H](O)CC3)CC2)cc1C#N [Compound 2.03, trans-N-((trans-4-(3-Cyano-4-methoxyphenyl)cyclohexyl)methyl)-4-hydroxy-N-(3-(1-isopropyl-1H-pyrazol-4-yl)phenyl)cyclohexanecarboxamide] |
| ≤ 250 nM | COc1ccc([C@H]2CC[C@H](CN(c3cccc(-c4cnn(C5CC5)c4)c3)C(=O)[C@H]3CC[C@H](O)CC3)CC2)cc1C#N [Compound 2.04, trans-N-((trans-4-(3-Cyano-4-methoxyphenyl)cyclohexyl)methyl)-N-(3-(1-cyclopropyl-1H-pyrazol-4-yl)phenyl)-4-hydroxycyclohexanecarboxamide] |
| ≤ 250 nM | COc1ccc([C@H]2CC[C@H](CN(c3cccc(-c4cnn(CC(F)F)c4)c3)C(=O)[C@H]3CC[C@H](O)CC3)CC2)cc1C [Compound 2.05, trans-N-(3-(1-(2,2-Difluoroethyl)-1H-pyrazol-4-yl)phenyl)-4-hydroxy-N-((trans-4-(4-methoxy-3-methylphenyl)cyclohexyl)methyl)cyclohexanecarboxamide] |
| ≤ 250 nM | COc1ccc([C@H]2CC[C@H](CN(c3cccc(-c4cnn(C(F)(F)F)c4)c3)C(=O)[C@H]3CC[C@H](O)CC3)CC2)cc1C [Compound 2.06, trans-4-Hydroxy-N-((trans-4-(4-methoxy-3-methylphenyl)cyclohexyl)methyl)-N-(3-(1-(trifluoromethyl)-1H-pyrazol-4-yl)phenyl)cyclohexanecarboxamide] |
| ≤ 250 nM | COc1ccc([C@H]2CC[C@H](CN(c3cc(-c4cnn(C5CC5)c4)ccn3)C(=O)[C@H]3CC[C@H](O)CC3)CC2)cc1C [Compound 2.07, trans-N-(4-(1-Cyclopropyl-1H-pyrazol-4-yl)pyridin-2-yl)-4-hydroxy-N-((trans-4-(4-methoxy-3-methylphenyl)cyclohexyl)methyl)cyclohexanecarboxamide] |
| ≤ 250 nM | COc1ccc(C23CCC(CN(c4cc(-c5cnn(C6CC6)c5)ccn4)C(=O)[C@H]4CC[C@H](O)CC4)(CC2)CC3)cc1C [Compound 2.08, trans-N-(4-(1-Cyclopropyl-1H-pyrazol-4-yl)pyridin-2-yl)-4-hydroxy-N-((4-(4-methoxy-3-methylphenyl)bicyclo[2.2.2]octan-1-yl)methyl)cyclohexanecarboxamide] |
| ≤ 250 nM | COc1ccc(C23CCC(CN(c4cc(-c5cnn(C(C)C)c5)ccn4)C(=O)[C@H]4CC[C@H](O)CC4)(CC2)CC3)cc1C [Compound 2.09] |
| ≤ 250 nM | COc1ccc([C@H]2CC[C@H](CN(c3cccc(-c4cnn(C5CC5)c4)c3)C(=O)[C@H]3CC[C@H](O)CC3)CC2)cc1C [Compound 3, trans-N-(3-(1-Cyclopropyl-1H-pyrazol-4-yl)phenyl)-4-hydroxy-N-((trans-4-(4-methoxy-3-methylphenyl)cyclohexyl)methyl)cyclohexanecarboxamide] |
| ≥ 1000 nM | COc1ccc([C@H]2CC[C@H](CN(c3cccc(-c4ccn(C)n4)c3)C(=O)[C@H]3CC[C@H](O)CC3)CC2)cc1C [Compound 3.01, trans-4-Hydroxy-N-((trans-4-(4-methoxy-3-methylphenyl)cyclohexyl)methyl)-N-(3-(1-methyl-1H-pyrazol-3-yl)phenyl)cyclohexanecarboxamide] |
| ≤ 250 nM | COc1ccc([C@H]2CC[C@H](CN(c3cccc(-c4cnn(C(C)C)c4)c3)C(=O)[C@H]3CC[C@H](O)CC3)CC2)cc1C [Compound 3.02, trans-4-Hydroxy-N-(3-(1-isopropyl-1H-pyrazol-4-yl)phenyl)-N-((trans-4-(4-methoxy-3-methylphenyl)cyclohexyl)methyl)cyclohexanecarboxamide] |
| ≤ 250 nM | COc1ccc([C@H]2CC[C@H](CN(c3cccc(-c4cnn(CC(C)C)c4)c3)C(=O)[C@H]3CC[C@H](O)CC3)CC2)cc1C [Compound 3.03, trans-4-Hydroxy-N-(3-(1-isobutyl-1H-pyrazol-4-yl)phenyl)-N-((trans-4-(4-methoxy-3-methylphenyl)cyclohexyl)methyl)cyclohexanecarboxamide] |
| ≤ 250 nM | CCCn1cc(-c2cccc(N(C[C@H]3CC[C@H](c4ccc(OC)c(C)c4)CC3)C(=O)[C@H]3CC[C@H](O)CC3)c2)cn1 [Compound 3.04, trans-4-Hydroxy-N-((trans-4-(4-methoxy-3-methylphenyl)cyclohexyl)methyl)-N-(3-(1-propyl-1H-pyrazol-4-yl)phenyl)cyclohexanecarboxamide] |
| ≥ 1000 nM | COc1ccc([C@H]2CC[C@H](CN(c3cccc(-c4cnn(CCO)c4)c3)C(=O)[C@H]3CC[C@H](O)CC3)CC2)cc1C [Compound 3.05, trans-4-Hydroxy-N-(3-(1-(2-hydroxyethyl)-1H-pyrazol-4-yl)phenyl)-N-((trans-4-(4-methoxy-3-methylphenyl)cyclohexyl)methyl)cyclohexanecarboxamide] |
| ≥ 1000 nM | COc1ccc([C@H]2CC[C@H](CN(c3cccc(-c4cnn(CCN(C)C)c4)c3)C(=O)[C@H]3CC[C@H](O)CC3)CC2)cc1C [Compound 3.06, trans-N-(3-(1-(2-(Dimethylamino)ethyl)-1H-pyrazol-4-yl)phenyl)-4-hydroxy-N-((trans-4-(4-methoxy-3-methylphenyl)cyclohexyl)methyl)cyclohexanecarboxamide] |
| ≤ 250 nM | COc1ccc([C@H]2CC[C@H](CN(c3cccc(-c4cnn(CC(F)(F)F)c4)c3)C(=O)[C@H]3CC[C@H](O)CC3)CC2)cc1C [Compound 3.07, trans-4-Hydroxy-N-((trans-4-(4-methoxy-3-methylphenyl)cyclohexyl)methyl)-N-(3-(1-(2,2,2-trifluoroethyl)-1H-pyrazol-4-yl)phenyl)cyclohexanecarboxamide] |
| ≤ 250 nM | COc1ccc([C@H]2CC[C@H](CN(c3cccc(-c4cnn(C5CCC5)c4)c3)C(=O)[C@H]3CC[C@H](O)CC3)CC2)cc1C [Compound 3.08, trans-N-(3-(1-Cyclobutyl-1H-pyrazol-4-yl)phenyl)-4-hydroxy-N-((trans-4-(4-methoxy-3-methylphenyl)cyclohexyl)methyl)cyclohexanecarboxamide] |
| ≤ 250 nM | COc1ccc([C@H]2CC[C@H](CN(c3cccc(-c4cnn(C5COC5)c4)c3)C(=O)[C@H]3CC[C@H](O)CC3)CC2)cc1C [Compound 3.09, trans-4-Hydroxy-N-((trans-4-(4-methoxy-3-methylphenyl)cyclohexyl)methyl)-N-(3-(1-(oxetan-3-yl)-1H-pyrazol-4-yl)phenyl)cyclohexanecarboxamide] |
| ≤ 250 nM | COc1ccc([C@H]2CC[C@H](CN(c3cccc(-c4cnn(C5CCOCC5)c4)c3)C(=O)[C@H]3CC[C@H](O)CC3)CC2)cc1C [Compound 3.10, trans-4-Hydroxy-N-((trans-4-(4-methoxy-3-methylphenyl)cyclohexyl)methyl)-N-(3-(1-(tetrahydro-2H-pyran-4-yl)-1H-pyrazol-4-yl)phenyl)cyclohexanecarboxamide] |
| ≤ 250 nM | COc1ccc([C@H]2CC[C@H](CN(c3cccc(-c4cnn(C(F)F)c4)c3)C(=O)[C@H]3CC[C@H](O)CC3)CC2)cc1C [Compound 3.11, trans-N-(3-(1-(Difluoromethyl)-1H-pyrazol-4-yl)phenyl)-4-hydroxy-N-((trans-4-(4-methoxy-3-methylphenyl)cyclohexyl)methyl)cyclohexanecarboxamide] |
| ≤ 250 nM | COc1ccc([C@H]2CC[C@H](CN(c3cccc(-c4cnn(CCF)c4)c3)C(=O)[C@H]3CC[C@H](O)CC3)CC2)cc1C [Compound 3.12, trans-N-(3-(1-(2-Fluoroethyl)-1H-pyrazol-4-yl)phenyl)-4-hydroxy-N-((trans-4-(4-methoxy-3-methylphenyl)cyclohexyl)methyl)cyclohexanecarboxamide] |
